Consider 7 sequences from publication PMC8016998, “Identification of potential therapeutic antimicrobial peptides against Acinetobacter baumannii in a mouse model of pneumonia” (Scientific Reports, 2021).

No end group written: not given here.

The nature of one data set: LD50 (preliminary data). In kind it is in vivo. The following applies: intratracheal administration.
In data set [1] the test system is A. baumannii laboratory strains (ATCC strains 17,978 and 19,606). In kind it is cell-based, Acinetobacter baumannii. Conditions: disc diffusion; activity = inhibition zone diameter ≥ 10 mm. (In general: In agar diffusion tests the substance spreads into inoculated agar from a disc or well.)
Protocol: The antimicrobial activities of 58 AMPs were screened against A. baumannii laboratory strains (ATCC strains 17,978 and 19,606) in vitro using a disc diffusion assay (Supplementary Table 1).
The antimicrobial activity against Acinetobacter baumannii were determined by a inhibition zone
assay, performed as previous described1. The AMPs with an inhibition zone diameter ≥ 10 mm were
determined as the AMPs with antimicrobial activity.
Data set [2] deals with MDRAB clinical strain U80. In kind it is cell-based, Acinetobacter baumannii. The following applies: 24 h.
Protocol: (§1) MBC were determined by extending the MIC procedure in sterilized 96-well polypropylene microtiter plates according to the broth microdilution guidelines of the Clinical and Laboratory Standards Institute with some modification[47]. […] In addition, 10 µL was drawn from each well with no visible turbidity onto LB agar plates and incubated for 24 h at 37 °C. The lowest concentration showing no visible growth on agar subculture was used as the MBC value. All experiments were performed in triplicate.
For data set [3], the system named is MDRAB clinical strain AE6. In kind it is cell-based, Acinetobacter baumannii. Conditions: 24 h.
Protocol: as §1
Data set [4] relates to MDRAB clinical strain AE5. In kind it is cell-based, Acinetobacter baumannii. Conditions: 24 h.
In data set [5] the test system is MDRAB clinical strain D29. In kind it is cell-based, Acinetobacter baumannii. The following applies: 24 h.
Data set [6] deals with MDRAB clinical strain AZ93. In kind it is cell-based, Acinetobacter baumannii. The following applies: 24 h.
Data set [7] relates to MDRAB clinical strain Y92. In kind it is cell-based, Acinetobacter baumannii. Conditions: 24 h.
The test system of data set [8] is MDRAB clinical strain L87. In kind it is cell-based, Acinetobacter baumannii. The following applies: 24 h.
Data set [9] has as its system MDRAB clinical strain AF12. In kind it is cell-based, Acinetobacter baumannii. The following applies: 24 h.
Protocol: as §1
Data set [10] deals with MDRAB clinical strain AL87. In kind it is cell-based, Acinetobacter baumannii. The following applies: 24 h.
Data set [11] relates to Acinetobacter baumannii 19,606. In kind it is cell-based. Conditions: 19,606, 24 h.
Protocol: as §1
Data set [12] deals with MDRAB clinical strain AS40. In kind it is cell-based, Acinetobacter baumannii. The following applies: 24 h.
Another data set deals with MDRAB clinical strain K2. In kind it is cell-based, Acinetobacter baumannii. The following applies: 24 h.
The subject of data set [13] is MDRAB clinical strain AO80. In kind it is cell-based, Acinetobacter baumannii. Conditions: 24 h.
Data set [14] concerns MDRAB clinical strain AF93. In kind it is cell-based, Acinetobacter baumannii. Conditions: 24 h.
Protocol: as §1
A further data set deals with MDRAB clinical strains. In kind it is cell-based, Acinetobacter baumannii. The following applies: 24 h.
The test system of data set [15] is MDRAB clinical strain AN10. In kind it is cell-based, Acinetobacter baumannii. The following applies: 24 h.
Protocol: as §1
For data set [16], the system named is MDRAB clinical strain W11. In kind it is cell-based, Acinetobacter baumannii. The following applies: 24 h.
Data set [17] concerns MDRAB clinical strain AK61. In kind it is cell-based, Acinetobacter baumannii. Conditions: 24 h.
Protocol: as §1
Data set [18] deals with Acinetobacter baumannii 17,978. In kind it is cell-based. Conditions: 17,978, 24 h.
Protocol: as §1
The subject of data set [19] is MDRAB clinical strain U95. In kind it is cell-based, Acinetobacter baumannii. The following applies: 24 h.
Protocol: as §1
Data set [20] relates to MDRAB clinical strain AG51. In kind it is cell-based, Acinetobacter baumannii. The following applies: 24 h.
Data set [21] deals with MDRAB clinical strain AF11. In kind it is cell-based, Acinetobacter baumannii. The following applies: 24 h.
The subject of data set [22] is MDRAB clinical strain AK29. In kind it is cell-based, Acinetobacter baumannii. The following applies: 24 h.
Data set [23] relates to MDRAB clinical strain J49. In kind it is cell-based, Acinetobacter baumannii. The following applies: 24 h.
For data set [24], the system named is MDRAB clinical strain O59. In kind it is cell-based, Acinetobacter baumannii. Conditions: 24 h.
Protocol: as §1

The term LD50 denotes the dose at which mortality reaches 50%. Usually MBC stands for the smallest concentration meeting the test's criterion for killing. Read a low MBC as more potent killing. For orientation: MIC means the smallest concentration in the dilution series that meets the test's criterion for growth inhibition.

Protocol for MDRAB clinical strains: as §1

Regarding FIHHIIGGLFSAGKAIHRLIRRRRR [TP4], the LD50 in the data set “LD50 (preliminary data)” was 10 to 20 mg/kg.
On to “AKKVFKRLGIGAVLKVLTTG [HPME, antimicrobial peptide]”, for which, in data set [1], the “antimicrobial activity against Acinetobacter baumannii (inhibition zone assay)” value (“antimicrobial activity … (inhibition zone assay)” below) is listed as “without antimicrobial activity (The antimicrobial peptides without antimicrobial activity)”.
Same read-out and setting: for “AKKVFKRLG IGKFLHSAKKF-NH2 [HPMA, antimicrobial peptide]” the value was “without antimicrobial activity (The antimicrobial peptides without antimicrobial activity)”.
Take “KQFRIRVRV [Peptide 1029, antimicrobial peptide]”: the “antimicrobial activity … (inhibition zone assay)” value in data set [1] is listed as “without antimicrobial activity (The antimicrobial peptides without antimicrobial activity)”.
Turning to “GLLRKGGEKIGEKLKKIGQKIKNFFQKLVPQPEQ [CRAMP, antimicrobial peptide]”, the “antimicrobial activity … (inhibition zone assay)” value in data set [1] was “without antimicrobial activity (The antimicrobial peptides without antimicrobial activity)”.
Same read-out and setting: for “KRFRIRVRV [Peptide 1037, antimicrobial peptide]” the value was “without antimicrobial activity (The antimicrobial peptides without antimicrobial activity)”.
Consider GRFKRFRKKFKKLFKKLSPVIPLLHLG [BMAP-27], for which the MBC in data set [2] came to 16 µg/mL; in data set [3], 16 µg/mL; in data set [4] it was 16 µg/mL; in data set [5], 16 µg/mL; in data set [6], 8 µg/mL; in data set [7], 8 µg/mL. Besides, the MBC in [8] stood at 16 µg/mL; in data set [9] it was 8 µg/mL; in data set [10] it was 8 µg/mL; in data set [11] it was 8 µg/mL; in [12], 8 µg/mL; with MDRAB clinical strain K2, 32 µg/mL. Further, the MBC in [13] came out at 8 µg/mL; in data set [14], 8 µg/mL; in data set [15], 4 µg/mL; in [16], 16 µg/mL; in data set [17], 8 µg/mL; in data set [18], 16 µg/mL. Also, the MBC in data set [19] was 16 µg/mL; in [20] it was 8 µg/mL; in [21] it was 16 µg/mL; in [22], 8 µg/mL; in data set [23], 8 µg/mL; in data set [24], 16 µg/mL. Further, the minimum inhibitory concentration (MIC) in data set [2] worked out at 8 µg/mL; in data set [3] it was 16 µg/mL; in data set [4], 8 µg/mL; in data set [5], 16 µg/mL; in [6], 8 µg/mL; in data set [7] it was 8 µg/mL. Also, the MIC in [8] stood at 16 µg/mL; in data set [9] it was 8 µg/mL; in data set [10], 8 µg/mL; in [11], 8 µg/mL; in [12] it was 8 µg/mL; with MDRAB clinical strain K2, 16 µg/mL. The MIC is 8 µg/mL in data set [13]; 8 µg/mL in [14]; 4 to 16 µg/mL against MDRAB clinical strains; 4 µg/mL in data set [15]; 16 µg/mL in data set [16]; 8 µg/mL in data set [17]. Also, the MIC in data set [18] was determined as 16 µg/mL; in data set [19] it was 16 µg/mL; in data set [20], 4 µg/mL; in data set [21], 8 µg/mL; in [22], 4 µg/mL; in data set [23], 8 µg/mL. In [24], this sequence had an MIC of 16 µg/mL.
